Paper PMC8078842 (PLoS Neglected Tropical Diseases, 2021)
Like-named read-outs stand apart in the source and are kept apart here.

How the values were obtained:
[1] = system: Trypanosoma brucei blood stream form trypomastigotes (T. b. brucei strain S427); assay: Trypanocidal activity in vitro (Alamar Blue); assay type: cell-based
[2] = target: Imidazoline, I2 [central]; assay: CNS side effect panel, [^3H]2-BFI; assay type: binding
[3] = system: Adrenergic, Alpha 1, Non-selective; assay: CNS side effect panel, [^3H]7-MeOxy-Prazosin; assay type: binding; settings: pentamidine 1.0E^-5 M
[4] = target: Muscarinic, Non-selective, Central; assay: CNS side effect panel, [^3H]QNB; assay type: binding
Histamine, H2 = Histamine, H2 (Cavia porcellus, UniProt P47747); assay: CNS side effect panel, [^125I]-Aminopotentidine; assay type: binding
[5] = system: Adrenergic, Beta, Non-selective; assay: CNS side effect panel, [^3H]DHA; assay type: binding; settings: pentamidine 1.0E^-5 M
Sodium, Site 2 = assay: CNS side effect panel, [^3H]Batrachotoxin A 20-a-Benzo; assay type: binding; settings: pentamidine 1.0E^-5 M
[6] = target: T1, Opioid, Orphanin, ORL1 (h) (Homo sapiens, UniProt P41146); assay: CNS side effect panel, [^3H] Nociceptin; assay type: binding; settings: pentamidine 1.0E^-5 M
T1 construct: purchased Perkin-Elmer Science Discovery Systems (NovaScreen), customised CNS screening panel

GABA A, Agonist Site = assay: CNS side effect panel, [^3H]GABA; assay type: binding; settings: pentamidine 1.0E^-5 M
Dopamine, D1 (h) = target: T2, Dopamine, D1 (h) (Homo sapiens, UniProt P21728); assay: CNS side effect panel, [^3H]-SCH23390; assay type: binding; settings: pentamidine 1.0E^-5 M
T2 construct: purchased Perkin-Elmer Science Discovery Systems (NovaScreen), customised CNS screening panel

Esterase, Acetylcholine = assay: CNS side effect panel, Acetylthiocholine; assay type: biochemical; settings: pentamidine 1.0E^-5 M
[7] = system: GABA A, BDZ, alpha 1 site; assay: CNS side effect panel, [^3H]Flunitrazepam; assay type: binding; settings: pentamidine 1.0E^-5 M
[8] = system: Nicotinic, Neuronal (a-BnTx insensitive); assay: CNS side effect panel, [^3H]Epibatidine; assay type: binding; settings: pentamidine 1.0E^-5 M
GABA-B = assay: CNS side effect panel, [^3H]CGP 54626A; assay type: binding; settings: pentamidine 1.0E^-5 M
Sigma, Non-selective = assay: CNS side effect panel, [^3H]DTG; assay type: binding; settings: pentamidine 1.0E^-5 M
[9] = system: Potassium Channel, ATP-Sensitive; assay: CNS side effect panel, [^3H]Glibenclamide; assay type: binding; settings: pentamidine 1.0E^-5 M
Endothelin, ET-B (h) = target: T3, Endothelin, ET-B (h) (Homo sapiens, UniProt P24530); assay: CNS side effect panel, [^125I]-Endothelin-1; assay type: binding; settings: pentamidine 1.0E^-5 M
T3 construct: purchased Perkin-Elmer Science Discovery Systems (NovaScreen), customised CNS screening panel

Angiotensin II, AT2 = assay: CNS side effect panel, [^125I]Tyr4-Angiotensin II; assay type: binding; settings: pentamidine 1.0E^-5 M
[10] = system: Potassium Channel, Ca2+ Act., VI; assay: CNS side effect panel, [^125I]Apamin; assay type: binding; settings: pentamidine 1.0E^-5 M
[11] = system: Glutamate, AMPA Site (Ionotropic); assay: CNS side effect panel, [^3H]AMPA; assay type: binding; settings: pentamidine 1.0E^-5 M
Adenosine, Non-selective = assay: CNS side effect panel, [^3H]NECA; assay type: binding; settings: pentamidine 1.0E^-5 M
Serotonin, Non-selective = assay: CNS side effect panel, [^3H] LSD; assay type: binding; settings: pentamidine 1.0E^-5 M
[12] = system: Cholecystokinin, CCK2 (CCKB); assay: CNS side effect panel, [^125I]CCK-8; assay type: binding; settings: pentamidine 1.0E^-5 M
[13] = system: Glycine, Strychnine-sensitive; assay: CNS side effect panel, [^3H]Strychnine; assay type: binding; settings: pentamidine 1.0E^-5 M
[14] = system: Glutamate, Kainate Site (Ionotropic); assay: CNS side effect panel, [^3H]Kainic acid; assay type: binding; settings: pentamidine 1.0E^-5 M
[15] = system: Glutamate,NMDA,Glycine (Stry-insens Site) (Ionot); assay: CNS side effect panel, [^3H]-MDL-105,519; assay type: binding; settings: pentamidine 1.0E^-5 M
[16] = Drug release from dialysis cells (Ritger-Peppas model); assay type: physicochemical; settings: 10 mM PTI ± 1% Pluronic, water, 37°C
Experimental: The tube was immersed in a 200 mL closed Duran flask which was placed in a water bath at 37°C for the duration of the experiment.
The data was fitted to Ritger-Peppas model.
Where M and M∞ are the cumulative amounts of drug released at time t and at infinite time, respectively; k, the reaction constant, t the time, n, the diffusional exponent describing the type of regime type: n = 1, case II transport, n = 0.5, Fickian diffusion, 0.5<n<1 non-Fickian diffusion.

[17] = system: Trypanosoma brucei gambience; settings: cited from earlier work
Imidazoline2 receptor = settings: 3H-idazoxan binding; cited from earlier work
Rat NMDA receptor = settings: Rat brain membrane 3H-dizocilpine binding; cited from earlier work
Calmodulin = settings: Inhibits nNO synthase in vitro; cited from earlier work
[18] = system: Acid sensing ion channels (ASIC); settings: Potency 1b>3>2a>or = 1a; cited from earlier work
Serine proteases = settings: cited from earlier work
P-gp (human MDR1) = assay: in vitro; settings: dog
[19] = target: cloned hKir2.1 potassium channels (Homo sapiens, UniProt P63252); assay: cell-based
[20] = human, in vivo; cited from earlier work
[21] = In vivo pharmacokinetic brain distribution with [^3H(G)]pentamidine; set-up: species or system BALB/c mice; settings: 2 hours post-injection i.v., corrected for vascular/[^14C]sucrose space
[22] = previously published data; cited from earlier work
[23] = read-out: % of bsf trypomastigotes inhibited

Histamine, H2, sequence (P47747 whole entry): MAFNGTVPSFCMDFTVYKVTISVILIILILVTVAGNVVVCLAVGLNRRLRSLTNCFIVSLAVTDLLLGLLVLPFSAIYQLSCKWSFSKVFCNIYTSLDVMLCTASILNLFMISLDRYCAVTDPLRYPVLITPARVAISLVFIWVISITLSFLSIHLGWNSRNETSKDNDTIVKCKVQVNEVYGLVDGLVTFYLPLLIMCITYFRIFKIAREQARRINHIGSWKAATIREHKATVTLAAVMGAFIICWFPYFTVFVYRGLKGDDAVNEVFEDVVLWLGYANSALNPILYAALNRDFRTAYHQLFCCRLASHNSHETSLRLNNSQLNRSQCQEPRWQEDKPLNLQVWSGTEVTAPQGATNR
T2 sequence (P21728 whole entry): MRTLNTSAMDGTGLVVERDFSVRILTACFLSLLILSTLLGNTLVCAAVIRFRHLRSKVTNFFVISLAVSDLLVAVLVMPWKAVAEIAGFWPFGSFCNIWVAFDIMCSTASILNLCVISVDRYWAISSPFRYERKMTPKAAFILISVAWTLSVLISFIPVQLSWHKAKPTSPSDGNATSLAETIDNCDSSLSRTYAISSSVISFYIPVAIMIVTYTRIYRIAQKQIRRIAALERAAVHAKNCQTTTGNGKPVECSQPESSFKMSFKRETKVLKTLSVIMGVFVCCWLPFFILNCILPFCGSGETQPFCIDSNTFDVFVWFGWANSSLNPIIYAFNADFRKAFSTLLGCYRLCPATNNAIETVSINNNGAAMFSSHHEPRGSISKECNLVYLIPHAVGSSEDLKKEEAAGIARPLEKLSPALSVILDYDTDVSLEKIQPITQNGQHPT
cloned hKir2.1 potassium channels, sequence (P63252 whole entry): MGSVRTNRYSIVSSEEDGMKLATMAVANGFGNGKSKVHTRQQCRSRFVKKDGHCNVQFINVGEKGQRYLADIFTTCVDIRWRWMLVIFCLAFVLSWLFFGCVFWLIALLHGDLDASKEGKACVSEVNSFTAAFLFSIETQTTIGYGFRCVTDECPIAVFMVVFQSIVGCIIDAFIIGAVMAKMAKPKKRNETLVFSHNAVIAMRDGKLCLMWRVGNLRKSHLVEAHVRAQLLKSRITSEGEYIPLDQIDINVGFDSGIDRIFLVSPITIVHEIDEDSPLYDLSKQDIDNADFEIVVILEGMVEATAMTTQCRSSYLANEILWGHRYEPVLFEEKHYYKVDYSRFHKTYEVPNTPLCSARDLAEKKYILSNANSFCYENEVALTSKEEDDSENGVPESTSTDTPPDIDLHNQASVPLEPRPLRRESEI
T1 sequence (P41146 whole entry): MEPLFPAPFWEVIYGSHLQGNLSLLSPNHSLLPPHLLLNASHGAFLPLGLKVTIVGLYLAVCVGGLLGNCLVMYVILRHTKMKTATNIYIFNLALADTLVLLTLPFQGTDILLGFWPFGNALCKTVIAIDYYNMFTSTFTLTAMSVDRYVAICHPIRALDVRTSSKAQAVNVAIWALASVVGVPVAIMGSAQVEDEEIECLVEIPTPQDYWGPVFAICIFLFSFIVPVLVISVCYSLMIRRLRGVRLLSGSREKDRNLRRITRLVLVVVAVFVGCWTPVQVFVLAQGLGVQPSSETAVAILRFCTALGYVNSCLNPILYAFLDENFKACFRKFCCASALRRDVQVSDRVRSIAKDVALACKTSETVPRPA
T3 sequence (P24530 27-442): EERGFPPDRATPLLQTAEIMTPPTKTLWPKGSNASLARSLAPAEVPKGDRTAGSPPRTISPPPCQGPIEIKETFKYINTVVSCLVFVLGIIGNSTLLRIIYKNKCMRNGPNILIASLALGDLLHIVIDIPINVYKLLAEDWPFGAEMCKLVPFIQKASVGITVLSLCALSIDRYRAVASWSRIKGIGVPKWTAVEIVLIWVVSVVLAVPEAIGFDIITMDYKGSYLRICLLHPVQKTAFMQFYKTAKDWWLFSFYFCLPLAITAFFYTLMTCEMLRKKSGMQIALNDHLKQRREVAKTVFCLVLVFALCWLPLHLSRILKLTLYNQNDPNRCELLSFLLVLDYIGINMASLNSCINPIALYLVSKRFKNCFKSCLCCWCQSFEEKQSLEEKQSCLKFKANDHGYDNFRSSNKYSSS

Molecule: N=C(N)c1ccc(OCCCCCOc2ccc(C(=N)N)cc2)cc1 [Pentamidine, 1,5-bis-4ρ-amidinophenoxypentane]
- inhibition at 5.7 pM [1, 23]: 4.1%
- inhibition at 17 pM [1, 23]: 35%
- inhibition at 51 pM [1, 23]: 65.3%
- inhibition at 0.3 µM [1, 23]: 97.4%
- inhibition at 1 µM [1, 23]: 98.3%
- IC50 ([1]; read-out: IC50 (± 95% CI) of pentamidine): 0.0211 nM
- Ki ([2]; Imidazoline 1_2, concentration-response): 1 nM
- Percent Inhibition ([2]; pentamidine 1.0E^-5 M): 101.03%
- Percent Inhibition [3]: 100.77%
- Ki ([4]; Muscarinic (central), concentration-response): 281 nM
- Percent Inhibition ([4]; pentamidine 1.0E^-5 M): 90.90%
- Ki (Histamine, H2): 7.21 µM
- Percent Inhibition (Histamine, H2; pentamidine 1.0E^-5 M): 71.07%
- Percent Inhibition [5]: 55.37%
- Percent Inhibition (Sodium, Site 2): 46.94%
- Percent Inhibition [6]: 36.62%
- Percent Inhibition (GABA A, Agonist Site): 31.10%
- Percent Inhibition (Dopamine, D1 (h)): 27.48%
- Percent Inhibition (Esterase, Acetylcholine): 23.21%
- Percent Inhibition [7]: 20.54%
- Percent Inhibition [8]: 10.87%
- Percent Inhibition (GABA-B): 10.74%
- Percent Inhibition (Sigma, Non-selective): 6.50%
- Percent Inhibition [9]: 6.07%
- Percent Inhibition (Endothelin, ET-B (h)): 4.50%
- Percent Inhibition (Angiotensin II, AT2): 2.96%
- Percent Inhibition [10]: 2.07%
- Percent Inhibition [11]: 1.34%
- Percent Inhibition (Adenosine, Non-selective): 1.28%
- Percent Inhibition (Serotonin, Non-selective): 0.09%
- Percent Inhibition [12]: 0.09%
- Percent Inhibition [13]: -0.22%
- Percent Inhibition [14]: -13.63%
- Percent Inhibition [15]: -17.52%
- reaction constant (k, Ritger-Peppas) [16]: ~0.3
- reaction type (diffusional exponent n, Ritger-Peppas) [16]: ca. 0.5
- Affinity, Trypanocidal ([17]; Time-dependent): 0.01 µM
- trypanocidal activity in vitro [17]: around 10 nM
- IC50 ([17]; comparator for relative selectivity, read-out: Trypanocidal Activity (IC50), printed in column Ki): 10 nM
- IC50 ([17]; read-out: IC50): 14.7 ± 4.7 nM
- Affinity (Imidazoline2 receptor): 0.014 µM
- Affinity (Rat NMDA receptor): 1.8 µM
- Affinity (Calmodulin): 30 µM
- Affinity [18]: 38 µM
- Affinity (Serine proteases): 4000 µM
- Papp B→A at 1 h, 10 µM (P-gp (human MDR1); MDCK-MDR1, pH 7.4, Papp B2A Replicate 1): 0.336 ×10⁻⁶ cm/s
- Papp B→A at 1 h, 10 µM (P-gp (human MDR1); MDCK-MDR1, pH 7.4, Papp B2A Replicate 2): 0.357 ×10⁻⁶ cm/s
- Papp B→A at 1 h, 20 µM (P-gp (human MDR1); MDCK-MDR1, pH 7.4, Papp basal to apical): 0.418 ×10⁻⁶ cm/s
- IC50 [19]: > 10 µM
- incidence of diabetes mellitus [20]: occasional but irreversible
- incidence of hypoglycaemia [20]: 5-40%

Molecule: [^3H(G)]pentamidine
- RTISSUE/PLASMA% (mean±SEM) Cerebellum [21]: 204.02 (± 35.28) %
- RTISSUE/PLASMA% (mean±SEM) Choroid plexus [21]: 24666.66 (± 4928) %
- RTISSUE/PLASMA% (mean±SEM) Homogenate [21]: 249.41 (± 35.59) %
- RTISSUE/PLASMA% (mean±SEM) Left brain [21]: 152.29 (± 33.48) %
- RTISSUE/PLASMA% (mean±SEM) Midbrain [21]: 181.18 (± 45.30) %
- RTISSUE/PLASMA% (mean±SEM) Pellet [21]: 479.72 (± 72.50) %
- RTISSUE/PLASMA% (mean±SEM) Pituitary gland [21]: 15053.41 (± 3598) %
- RTISSUE/PLASMA% (mean±SEM) Right brain [21]: 115.52 (± 12.46) %
- RTISSUE/PLASMA% (mean±SEM) Supernatant [21]: 123.35 (± 28.45) %
- Accumulation corrected for vascular space, hippocampus [22]: 4.3%
- Accumulation corrected for vascular space, hypothalamus [22]: 7.6%
- Accumulation corrected for vascular space, pons [22]: 8.2%
